Measured values: PMC10141604, “Small-Molecule Inhibition of Androgen Receptor Dimerization as a Strategy against Prostate Cancer” (ACS Central Science, 2023)

Tests used:
Type in all cases: cell-based
[1] = test system: secreted PSA from LNCaP cells; assay: Secreted prostate-specific antigen (PSA) assay; details: for IC50: Homo sapiens, read-out: IC50, PSA levels secreted in the cellular media
Method: Secreted Prostate-Specific Antigen (PSA) Assay
After the AR transcriptional activity assay was completed, 300 μl of the media
supernatant including the secreted PSA was measured using […]® 2000 XPi
Immunoassay System (Siemens Ltd., Erlangen, Germany). […]

[2] = test system: human liver cells (Chang); assay: MTT cell viability assay, Chang; details: 72 h
Method: 3-(4,5-dimethythiazol-2-yl)-2,5-diphenyl-2-H-tetrazolium bromide (MTT) colorimetric assay was employed to investigate cell viability. Cells were seeded into 96-well plates with 2-5× 10^3 cells per well (5× 10^3 cells/well for LNCaP, 22RV1, NIH-3T3, GES-1, Chang, […]
NCI-H1299, U2OS, U87) for 1 day incubation at 37 °C. Then, the cells were treated with various concentrations of compounds (22.86 nM - 50 μM) and incubated for 72 h. Then, 10 μl MTT (5 mg/ml) was added into each well and incubated for 4 h. Afterwards, 100 μl of triplex 10% SDS-0.1% HCl-phosophate-buffered saline (PBS) solutions was added into each well and incubated for overnight. The absorbance at 570 nm was measured (Eon, Bioteck, Winooski, VT). […]

LNCaP cells = assay: Clonogenic (colony forming) assay, LNCaP; details: 2 and 20 μM, 16-18 days
Method: 1.5× 10^3 cells/well of LNCaP or 22RV1 were seeded into a 6-well plate. After 1 day
incubation, the medium of each well was removed and washed thrice using PBS. […]

GR = molecular target: T1, GR (Homo sapiens, UniProt P04150); assay: Luciferase reporter assay for GR (HeLa cells); details: 10 μM, 1 nM dexamethasone
T1 construct: host or cells: HeLa
T1 sequence (P04150 1-777): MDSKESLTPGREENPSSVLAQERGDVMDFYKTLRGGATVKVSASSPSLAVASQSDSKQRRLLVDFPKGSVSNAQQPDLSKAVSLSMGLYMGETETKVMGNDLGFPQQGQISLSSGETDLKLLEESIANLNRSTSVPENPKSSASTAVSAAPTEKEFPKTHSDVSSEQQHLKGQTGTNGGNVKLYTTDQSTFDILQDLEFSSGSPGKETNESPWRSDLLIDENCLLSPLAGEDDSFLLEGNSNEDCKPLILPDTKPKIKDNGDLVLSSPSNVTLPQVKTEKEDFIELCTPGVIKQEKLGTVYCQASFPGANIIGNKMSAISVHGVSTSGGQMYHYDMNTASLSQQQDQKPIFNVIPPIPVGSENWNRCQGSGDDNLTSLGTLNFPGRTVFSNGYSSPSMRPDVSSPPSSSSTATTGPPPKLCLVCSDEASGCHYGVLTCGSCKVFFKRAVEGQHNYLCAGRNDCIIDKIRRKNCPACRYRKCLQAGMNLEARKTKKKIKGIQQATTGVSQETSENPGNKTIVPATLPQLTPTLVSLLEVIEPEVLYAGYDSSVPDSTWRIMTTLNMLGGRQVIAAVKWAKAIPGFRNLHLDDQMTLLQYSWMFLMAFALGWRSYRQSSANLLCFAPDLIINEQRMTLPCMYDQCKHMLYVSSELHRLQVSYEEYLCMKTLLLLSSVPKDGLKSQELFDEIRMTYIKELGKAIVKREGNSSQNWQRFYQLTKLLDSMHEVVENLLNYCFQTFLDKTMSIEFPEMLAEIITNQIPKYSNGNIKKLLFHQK
Method: calculating volume (V= 0.5 × L × W2). Finally, the mice were sacrificed and the tumors were harvested for hematoxylin and eosin (H&E) staining.
Luciferase Reporter Assays for PR, GR, and MR
Addgene), 24 ng pGL4.36[luc2P MMTV Hygro] (Promega) and 5 ng Renilla using HG- […]
Addgene), 24 ng pGL4.36[luc2P MMTV Hygro] (Promega) and 5 ng Renilla using lip3000 transfection reagent (#L3000075, Thermofisher) for 24 h. For MR induction, HEK293T (1 × 10^4 cells/well) were transfected with 71 ng pCMV-MR gifted by Liu et al. 28, 24 ng of pGL4.36[luc2P MMTV Hygro] (Promega) and 5 ng Renilla using lip3000 transfec tion reagent for 24 h. For the antagonistic models, 10 nM /well progesterone for PC3 cells , 1 nM/well dexamethasone for HeLa, and 5 nM/well aldosterone for HEK293T cells were added to stimulate the cells. Meanwhile, each cell line was treated […]
For the agonistic models, the cells were directly treated with the compounds without any hormones. […]
hormones progesterone, dexamethasone, and aldosterone were considered as agonists for PR, GR, and MR, respectively. The luciferase activities were assessed using the Dual-Glo Luciferase system (#E1910, Promega).
Cell Cycle and Apoptosis for LNCaP cells
LNCaP were cultured in 6-well plate with 5× 10^5 cells/well, after incubated at 37 °C for […]
Cell cycle were determined after 48 h incubation by Cell Cycle Staining Kit (#CCS012, MULTI SCIENCES) using […]

[3] = test system: PSA, CDC20, CENPF, MKI67 mRNA in LNCaP cells; assay: Quantitative PCR in LNCaP cells; details: for mRNA expression of PSA: LNCaP, 0.1, 1 μM, 5 nM DHT; for mRNA expressions of CDC20, CENPF and MKI67: LNCaP, compared with DHT
Method: Quantitative PCR (qPCR) for PSA, CDC20, CENPF, MKI67
LNCaP cells were cultured in medium containing 5% CSS in six -well plates and treated […]
where 5 nM DHT and DMSO were separately used in parallel as controls. After 48 h incubation, EZ-10 DNAaway RNA Mini -Preps Kit (Sangon Biotech) and Hifair® Ⅲ 1st Strand cDNA Synthesis SuperMix for qPCR (YEASEN) were employed for mRNA extraction and cDNA preparation, respectively. Then, the PCR SYBR Green Master Mix (YEASEN) was employed to amplify cDNA using the prime pairs in Table S5 . […]

Compound | inhibition of the secretion of PSA [1] | IC50 [1] [nM] | cytotoxicity against Chang [2] | colony formation of LNCaP cells (LNCaP cells) | GR antagonistic activity (GR) | mRNA expression of PSA [3] | mRNA expressions of CDC20, CENPF and MKI67 [3]
CC(=O)Cc1nsc(NC(=O)c2cc(-c3cccc(C(F)(F)F)c3)oc2C)n1 [Compound M17-B15] | dose-dependent | 350 | negligible cytotoxicity | significant inhibitory activities | largely ineffective | inhibited | significantly reduces
CNC(=O)c1ccc(N2C(=S)N(c3ccc(C#N)c(C(F)(F)F)c3)C(=O)C2(C)C)cc1F [Enz, enzalutamide, reference compound] |  | 180 | negligible cytotoxicity | significant inhibitory activities | largely ineffective | inhibited | significantly reduces
